Consider one molecule from BindingDB's records for doi:10.1016/j.bmc.2012.02.019 (Emory University, 2012).

Each structure is given as a SMILES string. pKi: −log10 of the molar value.

One may read the pKi as −log10 of the Ki, conventionally taken in molar units. Read a high pKi as a low Ki.

This test can be described thus: Displacement of [3H]-AVP from human V1b receptor after […] by liquid scintillation counting. A general note: Displacement assays read how much labelled ligand stays bound in the presence of the test substance.

Turning to `CS(=O)(=O)N1CCC(Oc2ccc(CC(=O)N3CCC(N4C(=O)CCc5ccccc54)CC3)c(OC/C=C/I)c2)CC1`, the pKi was < 6.00.
